Laboratory results as given in ChEMBL document CHEMBL3822399, “Discovery of novel, high potent, ABC type PTP1B inhibitors with TCPTP selectivity and cellular activity” (Eur J Med Chem, 2016).
One block for each molecule: values may come before it. Activity calls are given as the source filed them. The rule behind the calls is not given here.

How the values were obtained:
[1] = molecular target: T1, Tyrosine-protein phosphatase non-receptor type 1 (Homo sapiens, UniProt P18031); experiment: Inhibition of recombinant PTP1B (unknown origin) using pNPP as substrate incubated for 30 mins
T1 sequence (P18031 whole entry): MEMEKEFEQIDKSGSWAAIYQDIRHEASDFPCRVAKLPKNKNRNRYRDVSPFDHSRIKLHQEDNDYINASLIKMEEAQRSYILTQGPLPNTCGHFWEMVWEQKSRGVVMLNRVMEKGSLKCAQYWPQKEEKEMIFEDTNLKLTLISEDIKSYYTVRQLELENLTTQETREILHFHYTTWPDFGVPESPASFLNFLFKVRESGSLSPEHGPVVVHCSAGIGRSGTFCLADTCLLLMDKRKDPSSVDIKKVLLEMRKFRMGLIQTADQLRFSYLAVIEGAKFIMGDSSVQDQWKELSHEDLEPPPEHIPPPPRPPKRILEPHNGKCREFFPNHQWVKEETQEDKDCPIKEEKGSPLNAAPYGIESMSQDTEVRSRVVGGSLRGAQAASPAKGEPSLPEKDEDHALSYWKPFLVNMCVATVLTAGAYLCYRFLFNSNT

[2] = molecular target: T2, Tyrosine-protein phosphatase non-receptor type 2 (Homo sapiens, UniProt P17706); experiment: Inhibition of human TCPTP using pNPP as substrate incubated for 30 mins
T2 sequence (P17706 whole entry): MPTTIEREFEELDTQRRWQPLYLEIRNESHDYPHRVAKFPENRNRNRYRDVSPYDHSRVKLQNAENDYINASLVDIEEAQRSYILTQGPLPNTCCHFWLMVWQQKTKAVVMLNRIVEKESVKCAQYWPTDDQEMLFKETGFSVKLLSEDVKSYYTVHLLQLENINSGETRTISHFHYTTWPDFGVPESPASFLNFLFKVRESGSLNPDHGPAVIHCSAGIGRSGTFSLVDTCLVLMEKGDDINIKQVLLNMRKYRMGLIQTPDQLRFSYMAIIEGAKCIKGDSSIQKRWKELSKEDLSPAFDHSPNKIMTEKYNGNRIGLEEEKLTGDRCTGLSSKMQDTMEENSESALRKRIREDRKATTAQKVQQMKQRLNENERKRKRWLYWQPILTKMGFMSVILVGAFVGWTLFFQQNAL

[3] = molecular target: T3, Tyrosine-protein phosphatase non-receptor type 6 (Homo sapiens, UniProt P29350); experiment: Inhibition of human SHP1 using pNPP as substrate incubated for 30 mins
[4] = molecular target: T4, Tyrosine-protein phosphatase non-receptor type 11 (Homo sapiens, UniProt Q06124); experiment: Inhibition of human SHP2 using pNPP as substrate incubated for 30 mins
T4 sequence (Q06124 whole entry): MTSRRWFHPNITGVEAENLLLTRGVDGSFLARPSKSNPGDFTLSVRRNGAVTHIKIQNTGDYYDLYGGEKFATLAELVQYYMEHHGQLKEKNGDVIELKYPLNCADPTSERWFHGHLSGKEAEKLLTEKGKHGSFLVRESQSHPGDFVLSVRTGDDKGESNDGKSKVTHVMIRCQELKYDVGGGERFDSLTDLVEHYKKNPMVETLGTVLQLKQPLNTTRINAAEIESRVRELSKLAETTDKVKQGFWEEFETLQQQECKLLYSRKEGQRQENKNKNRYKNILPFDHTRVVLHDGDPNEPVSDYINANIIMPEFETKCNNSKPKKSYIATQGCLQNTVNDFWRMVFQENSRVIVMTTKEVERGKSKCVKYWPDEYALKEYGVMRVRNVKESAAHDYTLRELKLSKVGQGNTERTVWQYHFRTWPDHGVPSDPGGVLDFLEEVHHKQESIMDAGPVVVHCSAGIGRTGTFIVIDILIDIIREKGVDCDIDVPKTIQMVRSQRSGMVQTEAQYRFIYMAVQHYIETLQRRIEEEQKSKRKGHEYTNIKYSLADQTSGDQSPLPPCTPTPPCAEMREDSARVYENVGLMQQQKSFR

[5] = molecular target: T5, Receptor-type tyrosine-protein phosphatase F (Homo sapiens, UniProt P10586); experiment: Inhibition of human LAR using pNPP as substrate incubated for 30 mins
Homo sapiens = organism: Homo sapiens; experiment: Selectivity ratio of IC50 for human SHP1 to IC50 for recombinant PTP1B (unknown origin)
CHO = experiment: Inhibition of PTP1B in CHO cells expressing human IR assessed as increase in insulin-mediated IR-beta phosphorylation at tyrosine residue 20 at 15 to 30 uM preincubated for 4 hrs followed by insulin stimulation measured after 10 mins by western blot analysis; assay type: cell-based; conditions: Cricetulus griseus
[6] = molecular target: T6, Tyrosine-protein phosphatase non-receptor type 1 (Rattus norvegicus) (UniProt P20417); experiment: Inhibition of PTP1B in rat L6 cells assessed as increase in insulin-stimulated 2-NBDG uptake at 5 uM preincubated for 4 hrs followed by insulin stimulation for 10 mins and subsequent addition of 2-NBDG measured after 30 mins by fluorescence assay relative to control; assay type: cell-based; set-up: scale not given: the % may be the effect or the level left
T6 sequence (whole entry): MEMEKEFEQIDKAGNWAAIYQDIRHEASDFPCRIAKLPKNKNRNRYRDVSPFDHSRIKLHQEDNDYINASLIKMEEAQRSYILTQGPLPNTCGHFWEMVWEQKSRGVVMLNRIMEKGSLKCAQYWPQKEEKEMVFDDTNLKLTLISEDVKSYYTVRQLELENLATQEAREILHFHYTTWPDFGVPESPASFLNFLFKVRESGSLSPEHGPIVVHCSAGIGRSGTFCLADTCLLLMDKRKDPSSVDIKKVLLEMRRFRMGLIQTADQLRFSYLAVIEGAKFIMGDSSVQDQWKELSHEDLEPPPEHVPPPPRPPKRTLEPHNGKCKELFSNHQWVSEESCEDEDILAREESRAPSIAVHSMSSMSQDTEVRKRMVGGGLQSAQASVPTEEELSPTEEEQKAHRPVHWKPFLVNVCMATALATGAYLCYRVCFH

[7] = molecular target: T6, Tyrosine-protein phosphatase non-receptor type 1 (Rattus norvegicus); experiment: Inhibition of PTP1B in rat L6 cells assessed as increase in insulin-stimulated 2-NBDG uptake at 10 uM preincubated for 4 hrs followed by insulin stimulation for 10 mins and subsequent addition of 2-NBDG measured after 30 mins by fluorescence assay relative to control; assay type: cell-based; set-up: scale not given: the % may be the effect or the level left
[8] = molecular target: T6, Tyrosine-protein phosphatase non-receptor type 1 (Rattus norvegicus); experiment: Inhibition of PTP1B in rat L6 cells assessed as increase in insulin-stimulated 2-NBDG uptake at 20 uM preincubated for 4 hrs followed by insulin stimulation for 10 mins and subsequent addition of 2-NBDG measured after 30 mins by fluorescence assay relative to control; assay type: cell-based; set-up: scale not given: the % may be the effect or the level left
[9] = molecular target: T7, Tyrosine-protein phosphatase non-receptor type 2 (Homo sapiens) (UniProt P17706); experiment: Inhibition of human TCPTP using pNPP as substrate at 25 uM incubated for 30 mins relative to control
T7 sequence (whole entry): T2 sequence (P17706 whole entry)

[10] = molecular target: T3, Tyrosine-protein phosphatase non-receptor type 6; experiment: Inhibition of human SHP1 using pNPP as substrate at 25 uM incubated for 30 mins relative to control
[11] = molecular target: T8, Tyrosine-protein phosphatase non-receptor type 11 (Homo sapiens) (UniProt Q06124); experiment: Inhibition of human SHP2 using pNPP as substrate at 25 uM incubated for 30 mins relative to control
T8 sequence (whole entry): T4 sequence (Q06124 whole entry)

[12] = molecular target: T5, Receptor-type tyrosine-protein phosphatase F; experiment: Inhibition of human LAR using pNPP as substrate at 25 uM incubated for 30 mins relative to control
[13] = molecular target: T9, Tyrosine-protein phosphatase non-receptor type 1 (Homo sapiens) (UniProt P18031); experiment: Inhibition of recombinant PTP1B (unknown origin) using pNPP as substrate at 25 uM incubated for 30 mins relative to control
T9 sequence (whole entry): T1 sequence (P18031 whole entry)

T5 sequence (P10586 whole entry): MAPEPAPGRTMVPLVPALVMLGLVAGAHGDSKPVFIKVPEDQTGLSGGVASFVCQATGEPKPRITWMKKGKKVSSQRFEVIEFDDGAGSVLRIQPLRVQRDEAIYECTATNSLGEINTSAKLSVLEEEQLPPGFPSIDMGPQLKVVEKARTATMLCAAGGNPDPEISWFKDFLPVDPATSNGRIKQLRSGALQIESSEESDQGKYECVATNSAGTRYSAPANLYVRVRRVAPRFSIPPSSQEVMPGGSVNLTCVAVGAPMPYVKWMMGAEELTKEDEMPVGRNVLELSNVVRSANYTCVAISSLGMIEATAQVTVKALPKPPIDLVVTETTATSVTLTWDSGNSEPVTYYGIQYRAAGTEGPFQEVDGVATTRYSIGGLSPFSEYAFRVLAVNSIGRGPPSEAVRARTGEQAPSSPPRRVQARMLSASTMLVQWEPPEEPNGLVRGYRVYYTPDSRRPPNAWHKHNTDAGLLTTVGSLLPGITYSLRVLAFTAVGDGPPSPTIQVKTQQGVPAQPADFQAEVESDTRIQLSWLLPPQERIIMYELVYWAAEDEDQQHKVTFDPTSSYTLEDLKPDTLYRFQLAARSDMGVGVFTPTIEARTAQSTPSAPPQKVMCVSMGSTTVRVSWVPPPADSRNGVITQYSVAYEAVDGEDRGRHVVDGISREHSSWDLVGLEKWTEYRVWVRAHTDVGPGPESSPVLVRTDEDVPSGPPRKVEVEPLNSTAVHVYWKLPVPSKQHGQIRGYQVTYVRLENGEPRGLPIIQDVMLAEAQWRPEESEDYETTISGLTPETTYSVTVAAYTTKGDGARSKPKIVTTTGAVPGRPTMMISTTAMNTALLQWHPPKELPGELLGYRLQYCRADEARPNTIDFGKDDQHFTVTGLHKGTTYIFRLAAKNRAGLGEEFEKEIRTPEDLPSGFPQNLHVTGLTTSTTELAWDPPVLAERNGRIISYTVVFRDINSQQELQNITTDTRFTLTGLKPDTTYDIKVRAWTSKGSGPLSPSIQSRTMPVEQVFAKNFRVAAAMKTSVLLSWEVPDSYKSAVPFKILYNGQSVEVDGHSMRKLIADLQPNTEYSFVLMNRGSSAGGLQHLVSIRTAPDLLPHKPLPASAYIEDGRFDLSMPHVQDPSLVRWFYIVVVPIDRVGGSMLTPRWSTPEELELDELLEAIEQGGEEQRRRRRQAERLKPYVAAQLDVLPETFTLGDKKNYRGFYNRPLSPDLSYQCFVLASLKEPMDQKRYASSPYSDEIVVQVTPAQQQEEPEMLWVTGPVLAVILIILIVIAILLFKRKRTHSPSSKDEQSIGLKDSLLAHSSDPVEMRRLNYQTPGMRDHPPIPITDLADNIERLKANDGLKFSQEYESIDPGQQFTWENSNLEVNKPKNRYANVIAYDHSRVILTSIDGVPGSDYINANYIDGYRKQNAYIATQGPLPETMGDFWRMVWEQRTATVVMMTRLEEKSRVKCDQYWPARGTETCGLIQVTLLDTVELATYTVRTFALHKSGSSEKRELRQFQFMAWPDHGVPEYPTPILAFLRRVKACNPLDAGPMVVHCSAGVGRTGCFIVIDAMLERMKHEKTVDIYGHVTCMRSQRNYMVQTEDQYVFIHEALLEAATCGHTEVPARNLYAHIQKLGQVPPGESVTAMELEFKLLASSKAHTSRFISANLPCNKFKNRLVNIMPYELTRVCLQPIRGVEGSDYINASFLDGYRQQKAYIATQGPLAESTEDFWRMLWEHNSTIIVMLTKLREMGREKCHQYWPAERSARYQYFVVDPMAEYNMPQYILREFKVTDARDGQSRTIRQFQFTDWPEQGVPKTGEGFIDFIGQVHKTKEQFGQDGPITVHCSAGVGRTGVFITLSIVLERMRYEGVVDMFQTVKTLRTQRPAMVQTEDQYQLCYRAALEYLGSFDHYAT
T3 sequence (P29350 whole entry): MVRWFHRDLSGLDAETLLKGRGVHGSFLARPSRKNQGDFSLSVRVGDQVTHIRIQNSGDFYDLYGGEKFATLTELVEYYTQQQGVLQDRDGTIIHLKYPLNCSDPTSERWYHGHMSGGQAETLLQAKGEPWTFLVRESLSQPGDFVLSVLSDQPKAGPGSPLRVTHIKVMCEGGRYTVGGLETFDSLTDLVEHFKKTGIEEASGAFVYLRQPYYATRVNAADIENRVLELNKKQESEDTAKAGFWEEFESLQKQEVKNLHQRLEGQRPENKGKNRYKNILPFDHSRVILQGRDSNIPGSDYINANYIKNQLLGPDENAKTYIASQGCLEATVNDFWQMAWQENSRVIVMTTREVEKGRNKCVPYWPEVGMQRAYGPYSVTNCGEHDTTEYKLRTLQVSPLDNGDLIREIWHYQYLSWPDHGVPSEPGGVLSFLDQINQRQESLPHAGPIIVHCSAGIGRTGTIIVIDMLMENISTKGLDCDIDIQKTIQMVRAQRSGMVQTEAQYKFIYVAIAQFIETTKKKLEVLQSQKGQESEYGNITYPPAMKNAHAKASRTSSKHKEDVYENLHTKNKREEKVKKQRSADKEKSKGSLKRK

IC50 [1]: 16000 nM
SMILES: COC(=O)CN(c1ccc(CN(c2ccc(OCc3ccccc3)cc2)S(=O)(=O)Cc2ccccc2)cc1)S(C)(=O)=O

IC50 [1]: 50 nM
IC50 [2]: 760 nM
IC50 [3]: 2450 nM
IC50 [4]: 2160 nM
IC50 [5]: 12600 nM
Ratio IC50 (Homo sapiens): 49
Activity [6]: 16%
Activity [7]: 19%
Activity [8]: 38.1%
SMILES: COC(=O)CN(c1ccc(CN(c2ccc(OCc3ccc(C)cc3)c(C(=O)OC)c2)S(=O)(=O)Cc2ccccc2)cc1)S(C)(=O)=O
inhibition (CHO): Active

IC50 [1]: 936 nM
inhibition [9]: < 50%
inhibition [10]: < 50%
inhibition [11]: < 50%
inhibition [12]: < 50%
Activity [6]: 6.9%
Activity [7]: 26.1%
Activity [8]: 27.7%
SMILES: CCCOc1ccc(N(Cc2ccc(N(CC(=O)OC)S(C)(=O)=O)cc2)S(=O)(=O)Cc2ccccc2)cc1C(=O)OC

inhibition [13]: < 50%
SMILES: COC(=O)CN(c1ccc(CN(c2ccc(OCc3cccc(C)c3)c(C(=O)OC)c2)S(=O)(=O)Cc2ccccc2)cc1)S(C)(=O)=O

IC50 [4]: 11600 nM
IC50 [5]: 22300 nM
SMILES: CC1(C)CC[C@]2(C(=O)O)CC[C@]3(C)C(=CC[C@@H]4[C@@]5(C)CC[C@H](O)C(C)(C)[C@@H]5CC[C@]43C)[C@@H]2C1 [OLEANOLIC_ACID]

inhibition [13]: < 50%
SMILES: CCOc1ccc(N(Cc2ccc(N(CC(=O)OC)S(C)(=O)=O)cc2)S(=O)(=O)Cc2ccccc2)cc1C(=O)OC

IC50 [1]: 4830 nM
SMILES: CCCCOc1ccc(N(Cc2ccc(N(CC(=O)OC)S(C)(=O)=O)cc2)S(=O)(=O)Cc2ccccc2)cc1C(=O)OC

IC50 [1]: 355 nM
IC50 [2]: 427 nM
IC50 [3]: 6460 nM
inhibition [11]: < 50%
inhibition [12]: < 50%
Ratio IC50 (Homo sapiens): 18
SMILES: COC(=O)CN(c1ccc(CN(c2ccc(OCc3ccccc3)c(C(=O)OC)c2)S(=O)(=O)Cc2ccccc2)cc1)S(C)(=O)=O
